Legend:
[1] = system: CB1 receptor; conditions: in the brain; background; cited from earlier work
[2] = system: CB2 receptor; conditions: in the spleen; background; cited from earlier work
[3] = biological target: T1, CB2 receptor (Mus musculus, UniProt P47936); assay: Radioligand binding assay ([H^3]CP-55,940), mouse spleen as source of CB2; conditions: for Ki: mouse spleen, conducted in the same manner as for CB1, Ki from IC50 (Cheng and Prusoff)
T1 construct: Mouse spleen was used as a source of CB2 receptors; from tissue; host or cells: mouse spleen
Experimental: (§1) Approximately 30 μg of tissue was incubated in silanized 96 well microtiter plate with TME containing 0.1% essentially fatty acid free bovine serum albumin (BSA), 0.8 nM [H^3 ]CP-55,940 and various concentrations of the test compound in a final volume of 200 μL. Assays were incubated at 30° C. for 1 hour. The samples were filtered using Packard Filtermate 196 and Whatman GF/C Filterplates and washed with wash buffer (TME) containing 0.5% BSA. Radioactivity was detected using MicroScint 20 scintillation cocktail added directly to the dried filterplates, and the filterplates were counted using a Packard Instruments Top-Count. Nonspecific binding was assessed using 100 nM CP-55,940. Data collected from three independent experiments performed with duplicate determinations were normalized between 100% and 0% specific binding for [H^3 ]CP-55,940, determined using buffer and 100 nM CP-55,940. The normalized data was analyzed using a 4 parameter nonlinear logistic equation to yield IC50 values. Data from at least two independent experiments performed in duplicate were used to calculate IC50 values which were convered to Ki values using the assumptions of Cheng and Prusoff, Biochem. Pharmacol. 22:3099 (1973), the entire teachings of which are incorporated by reference.
Mouse spleen was used as a source of CB2 receptors to assess binding affinity of analogs described in this invention. The CB2 binding assay was conducted in the same manner as for CB1. Silanized centrifuge tubes were used throughout to minimize receptor loss due to adsorption.

[4] = biological target: T2, CB1 receptor (Rattus norvegicus, UniProt P20272); assay: Radioligand binding assay ([H^3]CP-55,940), rat forebrain membranes as source of CB1; conditions: 0.8 nM [H^3]CP-55,940, 30° C., 1 hour, Ki from IC50 (Cheng and Prusoff)
T2 construct: rat forebrain membranes as a source of CB1; from tissue; host or cells: rat brain membranes (called forebrain; prepared from whole brains minus the cerebral cortex)
Experimental: The binding affinities of the novel compounds described in this invention for the central cannabinoid receptor were assessed using rat forebrain membranes as a source of CB1. Membranes were prepared as described by the method of Dodd et al., Brain Res. 226:107 (1981), the entire teachings of which are incorporated herein by reference. Rat whole brains minus the cerebral cortex were diced with a razor blade and homogenized in 0.32 M sucrose, pH 7.4. The resulting suspension was spun at 400×g at 4° C. The supernatant was decanted and layered over 1.2 M sucrose in TME buffer (25 mM Tris base, 5 mM MgCl2 1 mMEDTA, pH 7.4) and spun at 109,000×g. The interface containing plasma membrane protein was collected, pooled and layered over 0.8 M sucrose in TME, pH 7.4. The pellet was carefully resuspended in TME, pH 7.4 and the total protein content was assayed by the method of Markwell et al., Anal. Biochem. 87:206 (1978), the entire teachings of which are incorporated herein by reference. Protein was aliquotted, frozen under liquid nitrogen and stored at -80° C. until use.
as §1

T1 sequence (P47936 whole entry): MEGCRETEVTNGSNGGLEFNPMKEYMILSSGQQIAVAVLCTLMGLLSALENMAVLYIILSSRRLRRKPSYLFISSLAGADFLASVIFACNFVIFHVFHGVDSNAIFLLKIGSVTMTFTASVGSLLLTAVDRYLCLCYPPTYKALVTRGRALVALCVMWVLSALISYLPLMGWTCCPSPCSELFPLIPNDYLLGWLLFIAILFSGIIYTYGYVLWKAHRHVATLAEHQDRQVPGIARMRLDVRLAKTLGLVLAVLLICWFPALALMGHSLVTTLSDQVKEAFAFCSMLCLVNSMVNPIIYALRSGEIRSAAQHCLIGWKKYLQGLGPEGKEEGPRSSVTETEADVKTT
T2 sequence (P20272 whole entry): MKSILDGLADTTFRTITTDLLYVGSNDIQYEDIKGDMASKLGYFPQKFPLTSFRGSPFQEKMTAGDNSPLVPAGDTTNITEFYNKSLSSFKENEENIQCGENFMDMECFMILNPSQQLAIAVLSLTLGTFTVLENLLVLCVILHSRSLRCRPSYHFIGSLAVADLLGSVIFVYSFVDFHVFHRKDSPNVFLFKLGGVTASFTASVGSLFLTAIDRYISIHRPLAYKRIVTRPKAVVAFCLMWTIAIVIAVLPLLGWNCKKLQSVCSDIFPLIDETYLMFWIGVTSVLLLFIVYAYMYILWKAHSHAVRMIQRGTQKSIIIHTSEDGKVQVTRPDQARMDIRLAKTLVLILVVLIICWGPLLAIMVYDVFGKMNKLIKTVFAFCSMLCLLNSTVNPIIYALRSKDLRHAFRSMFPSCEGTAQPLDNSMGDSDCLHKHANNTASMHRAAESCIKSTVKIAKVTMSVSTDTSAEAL

Compound | binding to the CB1 receptor [1] | binding to the CB2 receptor [2] | affinity for the CB2 receptor relative to the CB1 receptor ([3]; CB2 (mouse spleen) versus CB1 (rat forebrain)) | Ki [3] | Ki [4]
CCCCCc1cc(O)c2c(c1)OC(C)(C)C1CC=C(C)CC21 (single isomer, unassigned) [Δ^8 -Tetrahydrocannabinol] | binds | binds | – | – | –
CC1=CCC2C(C1)c1c(cc3c(c1O)C1CC(CCC1C)C3(C)C)OC2(C)C (stereo not shown) [AM724] | – | – | about 400 times | 16.9 nM | 6880 nM
CC1=CCC2C(C1)c1c(cc3c(c1O)C1CC(CCC1C)C3(C)C)OC2(C)C (stereo not shown) [AM725] | – | – | – | 281 nM | 360000 nM
CCCCCCC1CCc2cc(O)c3c(c2C1)OC(C)(C)C1CC=C(C)CC31 (stereo not shown) [AM855] | – | – | – | 58.6 nM | 22.3 nM
CCCCCC1CCc2c(cc3c(c2O)C2CC(C)=CCC2C(C)(C)O3)C1 (stereo not shown) [AM856] | – | – | – | 162 nM | 402 nM
CCCCCCC1CCCc2c1cc(O)c1c2OC(C)(C)C2CC=C(C)CC12 (stereo not shown) [AM858] | – | – | – | 456 nM | 524 nM

— US6166066A, “Cannabinoids selective for the CB2 receptor” (The University of Connecticut, priority 1999, dated 2000)
